What was measured:
Type in all cases: cell-based, Enterobacteriaceae
[1] = system: NDM-1 strains; details: class B CPEs of NDM type; proportionally to the EDTA concentration used
Description: (§1) Optimization of the Detection Specificity by Introducing Specific Inhibitors Inhibition of Class B Strains (NDM, VIM, IMP) by Adding EDTA
(§2) Identical to that used to determine the temocillin MICs by agar dilution (example 1).
(§3) For each temocillin concentration, the following concentrations of active EDTA will be tested in the form of disodium EDTA: 0, 1.77, 2.12, 2.47 and 2.83 mmol/l.
(§4) Method: identical to the method used in example 1.

[2] = system: VIM strains; details: class B CPEs of VIM type; proportionally to the EDTA concentration used
Description: as §1, §2, §3, §4

[3] = system: strains with impermeability-mediated resistance (IR); details: strains with impermeability-mediated resistance to carbapenems (IR)
Description: as §1, §2, §3, §4

O=C(O)CN(CCN(CC(=O)O)CC(=O)O)CC(=O)O [EDTA]
effect of EDTA on temocillin MIC [1]: decrease in their MIC
effect of EDTA on temocillin MIC [2]: decrease in their MIC
effect of EDTA on temocillin MIC [3]: slight increase in the MICs
